One test addresses T1, PARP16 (Homo sapiens, UniProt Q8N5Y8).
T1 sequence (Q8N5Y8 1-322): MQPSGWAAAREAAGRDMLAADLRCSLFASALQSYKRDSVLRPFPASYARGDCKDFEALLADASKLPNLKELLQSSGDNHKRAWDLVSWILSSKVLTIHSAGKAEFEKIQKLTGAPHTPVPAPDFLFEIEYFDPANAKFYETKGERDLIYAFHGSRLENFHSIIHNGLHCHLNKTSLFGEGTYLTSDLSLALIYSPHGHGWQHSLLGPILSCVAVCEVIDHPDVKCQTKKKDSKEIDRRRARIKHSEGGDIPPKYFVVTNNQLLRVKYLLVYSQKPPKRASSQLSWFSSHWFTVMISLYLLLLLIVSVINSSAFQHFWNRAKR
Conditions: read-out: KM NAD+ (literature); PARP16 FL row; cited from earlier work.

The target in the next test is PARP14 (Homo sapiens, UniProt Q460N5). As to the kind of experiment: In vitro ADP-ribosylation assay, PARP14. Format: biochemical. As to conditions: read-out: KM NAD+; PARP14 ART.
Chain of PARP14 (Q460N5 whole entry): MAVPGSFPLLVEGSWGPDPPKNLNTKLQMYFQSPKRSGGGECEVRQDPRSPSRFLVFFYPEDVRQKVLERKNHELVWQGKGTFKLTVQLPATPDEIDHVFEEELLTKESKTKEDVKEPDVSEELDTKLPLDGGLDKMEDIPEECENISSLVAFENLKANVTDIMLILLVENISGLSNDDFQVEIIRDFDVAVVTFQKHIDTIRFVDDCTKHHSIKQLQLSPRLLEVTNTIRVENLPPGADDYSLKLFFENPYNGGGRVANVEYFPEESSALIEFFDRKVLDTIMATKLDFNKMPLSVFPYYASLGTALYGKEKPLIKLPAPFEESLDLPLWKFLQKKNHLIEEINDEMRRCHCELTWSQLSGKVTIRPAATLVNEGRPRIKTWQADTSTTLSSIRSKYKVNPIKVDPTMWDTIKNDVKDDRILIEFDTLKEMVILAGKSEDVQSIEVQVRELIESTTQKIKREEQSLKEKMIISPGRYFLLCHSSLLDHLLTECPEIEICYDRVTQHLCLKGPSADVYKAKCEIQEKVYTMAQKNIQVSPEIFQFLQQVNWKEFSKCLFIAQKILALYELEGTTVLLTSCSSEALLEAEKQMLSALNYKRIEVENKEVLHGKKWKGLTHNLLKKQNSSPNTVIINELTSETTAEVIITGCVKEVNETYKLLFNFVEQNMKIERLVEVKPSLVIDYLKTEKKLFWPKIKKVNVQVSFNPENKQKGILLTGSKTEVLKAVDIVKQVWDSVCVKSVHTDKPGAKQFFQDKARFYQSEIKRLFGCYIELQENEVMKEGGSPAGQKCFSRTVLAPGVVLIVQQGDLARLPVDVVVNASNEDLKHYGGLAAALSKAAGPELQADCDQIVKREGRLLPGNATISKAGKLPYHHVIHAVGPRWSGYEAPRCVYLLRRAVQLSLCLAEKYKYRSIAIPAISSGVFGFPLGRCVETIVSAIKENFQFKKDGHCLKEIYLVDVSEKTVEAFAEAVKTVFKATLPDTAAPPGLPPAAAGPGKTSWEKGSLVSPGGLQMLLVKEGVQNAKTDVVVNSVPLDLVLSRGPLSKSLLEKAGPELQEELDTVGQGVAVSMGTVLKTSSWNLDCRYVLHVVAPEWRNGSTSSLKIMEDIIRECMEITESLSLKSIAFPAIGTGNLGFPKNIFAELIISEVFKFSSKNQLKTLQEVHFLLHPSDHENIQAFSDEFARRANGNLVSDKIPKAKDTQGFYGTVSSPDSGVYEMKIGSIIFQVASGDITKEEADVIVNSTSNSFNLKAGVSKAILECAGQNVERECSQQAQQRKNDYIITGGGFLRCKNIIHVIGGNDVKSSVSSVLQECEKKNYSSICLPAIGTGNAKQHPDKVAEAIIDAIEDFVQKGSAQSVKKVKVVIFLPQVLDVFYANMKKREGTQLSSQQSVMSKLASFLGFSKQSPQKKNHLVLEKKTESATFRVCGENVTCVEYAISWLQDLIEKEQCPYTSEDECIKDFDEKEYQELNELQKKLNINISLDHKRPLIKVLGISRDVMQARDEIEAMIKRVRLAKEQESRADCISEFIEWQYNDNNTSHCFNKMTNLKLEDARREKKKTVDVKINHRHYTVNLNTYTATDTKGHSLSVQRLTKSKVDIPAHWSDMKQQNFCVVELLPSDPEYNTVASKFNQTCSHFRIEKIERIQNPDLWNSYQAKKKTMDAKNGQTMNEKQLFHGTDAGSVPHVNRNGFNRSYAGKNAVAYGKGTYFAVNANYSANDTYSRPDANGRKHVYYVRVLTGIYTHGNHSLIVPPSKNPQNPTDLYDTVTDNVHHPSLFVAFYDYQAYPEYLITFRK
The next test deals with T2, PARP10 (Homo sapiens, UniProt Q53GL7).
T2 sequence (Q53GL7 1-1025): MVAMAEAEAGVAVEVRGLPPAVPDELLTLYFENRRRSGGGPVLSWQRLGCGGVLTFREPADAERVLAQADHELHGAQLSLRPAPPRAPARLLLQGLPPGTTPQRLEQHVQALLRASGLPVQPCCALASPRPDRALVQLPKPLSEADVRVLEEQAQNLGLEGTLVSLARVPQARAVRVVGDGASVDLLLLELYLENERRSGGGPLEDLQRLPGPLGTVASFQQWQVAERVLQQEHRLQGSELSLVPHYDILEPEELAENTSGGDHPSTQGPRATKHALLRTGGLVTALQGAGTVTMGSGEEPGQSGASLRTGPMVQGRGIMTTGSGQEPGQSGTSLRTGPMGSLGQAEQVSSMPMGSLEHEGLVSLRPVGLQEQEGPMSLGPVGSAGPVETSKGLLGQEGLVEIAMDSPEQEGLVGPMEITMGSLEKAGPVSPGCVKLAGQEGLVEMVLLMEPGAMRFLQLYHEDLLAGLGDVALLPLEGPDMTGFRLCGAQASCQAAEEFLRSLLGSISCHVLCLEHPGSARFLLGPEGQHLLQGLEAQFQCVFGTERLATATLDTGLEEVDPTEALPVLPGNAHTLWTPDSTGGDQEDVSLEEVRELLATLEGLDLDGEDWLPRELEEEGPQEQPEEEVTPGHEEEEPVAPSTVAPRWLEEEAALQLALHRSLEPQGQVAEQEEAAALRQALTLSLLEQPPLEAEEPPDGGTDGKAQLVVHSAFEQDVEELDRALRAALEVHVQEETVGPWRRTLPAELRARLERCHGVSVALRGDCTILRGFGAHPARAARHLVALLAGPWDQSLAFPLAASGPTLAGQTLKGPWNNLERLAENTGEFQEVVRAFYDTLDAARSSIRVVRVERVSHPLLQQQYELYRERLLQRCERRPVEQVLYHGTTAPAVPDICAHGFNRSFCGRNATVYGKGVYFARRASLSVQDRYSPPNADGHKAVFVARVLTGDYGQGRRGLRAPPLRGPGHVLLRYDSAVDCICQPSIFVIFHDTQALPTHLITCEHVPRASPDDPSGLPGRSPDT
Conditions: read-out: KM NAD+ (literature); PARP10 FL row; cited from earlier work.

For test [1], the system named is PARP1. As to conditions: read-out: KM NAD+ (literature), cited from earlier work.
A further test relates to PARP2. As to conditions: read-out: KM NAD+ (literature); PARP2 FL row; cited from earlier work.
Test [2] deals with PARP1. As to the kind of experiment: In vitro ADP-ribosylation assay, PARP1. The test is classed as biochemical, human. Conditions: selectivity toward PARP1 and -2 over other PARP family members.

Like-named read-outs stand apart in the source and are kept apart here. Bounds are passed on as bounds.

For `NC(=O)c1ccc[n+]([C@@H]2O[C@H](COP(=O)([O-])OP(=O)(O)OC[C@H]3O[C@@H](n4cnc5c(N)ncnc54)[C@H](O)[C@@H]3O)[C@@H](O)[C@H]2O)c1` [NAD+, nicotinamide adenine dinucleotide], the Km at PARP16 is 280 µM; at PARP14, 62 ± 7 µM; at PARP10, 50 µM; with PARP1 [1] (PARP1 ART row), 30 to 130 µM; in the test with PARP1 [1] (PARP1 FL row), 50 µM; in the test on PARP2, 130 µM.
`C[C@]1(c2nc3c(C(N)=O)cccc3[nH]2)CCCN1` [Veliparib]: the “IC50 values for PARP1 and -2 lower than those for other family members” value with PARP1 [2] is above 100 fold.

Values taken from PMC5934274 (Journal of medicinal chemistry, 2016).
